# Source: patent US20130065818A1, “Arylamide Compounds And Compositions And Uses Thereof” (POLYMEDIX, priority 2006, published 2013)
# Read-outs that look alike come from different tables or passages of the source.
# Key:
# [1] = system: Staphylococcus epidermidis (Coagulase-negative Staphylococcus) fluoroquinolone-resistant; assay: MIC, 25 ocular isolates, broth microdilution (Example 8); type: cell-based
# Outline: (§1)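 Broth microdilution in Mueller-Hinton broth, polypropylene plates, inoculum from 0.5 McFarland suspension diluted 0.05 ml into 5 ml; final test agent 64–0.0625 μg/ml (128–0.125 μg/ml for P. aeruginosa) in 0.01% acetic acid, 0.2% BSA diluent. Incubated 37° C overnight; MIC read visually as lowest concentration inhibiting visible growth.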
# [2] = system: Pseudomonas aeruginosa; assay: as above; type: cell-based
# Outline: as §1
# [3] = 25 isolates, Summary of Results, <0.0625 was Replaced with 0.03125
# [4] = Staphylococcus epidermidis, 25 ocular isolates, read-out: Median MIC
# [5] = Staphylococcus epidermidis, isolate 1—E515, read-out: MIC
# [6] = Staphylococcus epidermidis, isolate 2—E514, read-out: MIC
# [7] = Staphylococcus epidermidis, isolate 3—E513, read-out: MIC
# [8] = Staphylococcus epidermidis, isolate 4—E510, read-out: MIC
# [9] = Staphylococcus epidermidis, isolate 5—E509, read-out: MIC
# [10] = Staphylococcus epidermidis, isolate 6—E508, read-out: MIC
# [11] = Staphylococcus epidermidis, isolate 7—E505, read-out: MIC
# [12] = Staphylococcus epidermidis, isolate 8—E503, read-out: MIC
# [13] = Staphylococcus epidermidis, isolate 9—E502, read-out: MIC
# [14] = Staphylococcus epidermidis, isolate 10—E499, read-out: MIC
# [15] = Staphylococcus epidermidis, isolate 11—E498, read-out: MIC
# [16] = Staphylococcus epidermidis, isolate 12—E494, read-out: MIC
# [17] = Staphylococcus epidermidis, isolate 13—E493, read-out: MIC
# [18] = Staphylococcus epidermidis, isolate 14—E485, read-out: MIC
# [19] = Staphylococcus epidermidis, isolate 15—E487, read-out: MIC
# [20] = Staphylococcus epidermidis, isolate 16—E486, read-out: MIC
# [21] = Staphylococcus epidermidis, isolate 17—E480, read-out: MIC
# [22] = Staphylococcus epidermidis, isolate 18—E475, read-out: MIC
# [23] = Staphylococcus epidermidis, isolate 19—E471, read-out: MIC
# [24] = Staphylococcus epidermidis, isolate 20—E458, read-out: MIC
# [25] = Staphylococcus epidermidis, isolate 21—E452, read-out: MIC
# [26] = Staphylococcus epidermidis, isolate 22—E450, read-out: MIC
# [27] = Staphylococcus epidermidis, isolate 23—E440, read-out: MIC
# [28] = Staphylococcus epidermidis, isolate 24—E446, read-out: MIC
# [29] = Staphylococcus epidermidis, isolate 25—E444, read-out: MIC
# [30] = Staphylococcus epidermidis, n=25 per group, read-out: Median MIC
# [31] = Staphylococcus epidermidis, 25 isolates, Summary of Results, read-out: MIC50
# [32] = Staphylococcus epidermidis, 25 isolates, Summary of Results, read-out: MIC90
# [33] = Staphylococcus epidermidis, 25 isolates, Summary of Results, read-out: Median MIC
# [34] = 25 isolates, Summary of Results, >128 was Replaced with 256
# [35] = Pseudomonas aeruginosa, 25 ocular isolates, read-out: Median MIC
# [36] = Pseudomonas aeruginosa, isolate 1—K1673, read-out: MIC
# [37] = Pseudomonas aeruginosa, isolate 2—K1668, read-out: MIC
# [38] = Pseudomonas aeruginosa, isolate 3—K1662, read-out: MIC
# [39] = Pseudomonas aeruginosa, isolate 4—K1657, read-out: MIC
# [40] = Pseudomonas aeruginosa, isolate 5—K1651, read-out: MIC
# [41] = Pseudomonas aeruginosa, isolate 6—K1649, read-out: MIC
# [42] = Pseudomonas aeruginosa, isolate 7—K1564, read-out: MIC
# [43] = Pseudomonas aeruginosa, isolate 8—K1636, read-out: MIC
# [44] = Pseudomonas aeruginosa, isolate 9—K1634, read-out: MIC
# [45] = Pseudomonas aeruginosa, isolate 10—K1633, read-out: MIC
# [46] = Pseudomonas aeruginosa, isolate 11—K1632, read-out: MIC
# [47] = Pseudomonas aeruginosa, isolate 12—K1631, read-out: MIC
# [48] = Pseudomonas aeruginosa, isolate 13—K1629, read-out: MIC
# [49] = Pseudomonas aeruginosa, isolate 14—K1627, read-out: MIC
# [50] = Pseudomonas aeruginosa, isolate 15—K1626, read-out: MIC
# [51] = Pseudomonas aeruginosa, isolate 16—K1625, read-out: MIC
# [52] = Pseudomonas aeruginosa, isolate 17—K1562, read-out: MIC
# [53] = Pseudomonas aeruginosa, isolate 18—K1613, read-out: MIC
# [54] = Pseudomonas aeruginosa, isolate 19—K1553, read-out: MIC
# [55] = Pseudomonas aeruginosa, isolate 20—K1594, read-out: MIC
# [56] = Pseudomonas aeruginosa, isolate 21—K1588, read-out: MIC
# [57] = Pseudomonas aeruginosa, isolate 22—K1554, read-out: MIC
# [58] = Pseudomonas aeruginosa, isolate 23—K1580, read-out: MIC
# [59] = Pseudomonas aeruginosa, isolate 24—K1577, read-out: MIC
# [60] = Pseudomonas aeruginosa, isolate 25—K1576, read-out: MIC
# [61] = Pseudomonas aeruginosa, n=25 per group, read-out: Median MIC
# [62] = Pseudomonas aeruginosa, 25 isolates, Summary of Results, read-out: MIC50
# [63] = Pseudomonas aeruginosa, 25 isolates, Summary of Results, read-out: MIC90
# [64] = Pseudomonas aeruginosa, 25 isolates, Summary of Results, read-out: Median MIC
structure (smiles),measurement,setting,value
N=C(N)NCCCCC(=O)Nc1cc(C(F)(F)F)cc(NC(=O)c2cc(C(=O)Nc3cc(C(F)(F)F)cc(NC(=O)CCCCNC(=N)N)c3O[C@@H]3CCNC3)ncn2)c1O[C@@H]1CCNC1 [Oligomer 4],"MIC, sorted list for MIC50 and MIC90 Determinations (QRSE-A)","[1]; 25 isolates sorted ascending, Row 1-25, <0.0625 was Replaced with 0.03125",0.25 µg/mL
same,MIC50,"[1]; 25 isolates, Row 13",0.125 µg/mL
same,MIC90,"[1]; 25 isolates, Row 22",0.25 µg/mL
same,Range of MICs,[1]; [3],0.03125 to 0.25 µg/mL
same,MIC,[1]; [4],≤ 0.25 µg/mL
same,MIC,[1]; [5],0.125 µg/mL
same,MIC,[1]; [6],< 0.0625 µg/mL
same,MIC,[1]; [7],0.125 µg/mL
same,MIC,[1]; [8],< 0.0625 µg/mL
same,MIC,[1]; [9],0.125 µg/mL
same,MIC,[1]; [10],0.125 µg/mL
same,MIC,[1]; [11],0.125 µg/mL
same,MIC,[1]; [12],0.125 µg/mL
same,MIC,[1]; [13],0.125 µg/mL
same,MIC,[1]; [14],0.125 µg/mL
same,MIC,[1]; [15],0.125 µg/mL
same,MIC,[1]; [16],< 0.0625 µg/mL
same,MIC,[1]; [17],0.125 µg/mL
same,MIC,[1]; [18],0.125 µg/mL
same,MIC,[1]; [19],0.125 µg/mL
same,MIC,[1]; [20],< 0.0625 µg/mL
same,MIC,[1]; [21],0.125 µg/mL
same,MIC,[1]; [22],0.25 µg/mL
same,MIC,[1]; [23],0.125 µg/mL
same,MIC,[1]; [24],0.125 µg/mL
same,MIC,[1]; [25],0.25 µg/mL
same,MIC,[1]; [26],0.125 µg/mL
same,MIC,[1]; [27],0.25 µg/mL
same,MIC,[1]; [28],0.125 µg/mL
same,MIC,[1]; [29],0.25 µg/mL
same,MIC,[1]; [30],0.125 µg/mL
same,MIC50,[1]; [31],0.125 µg/mL
same,MIC90,[1]; [32],0.25 µg/mL
same,MIC,[1]; [33],0.125 µg/mL
same,MIC50,[1]; n=25 per group,0.125 µg/mL
same,MIC90,[1]; n=25 per group,0.25 µg/mL
same,Range of MICs,[1]; n=25 per group,0.03125 to 0.25 µg/mL
same,MIC50,"[2]; 25 isolates, Row 13",4 µg/mL
same,Range of MICs,[2]; [34],0.5 to 8 µg/mL
same,MIC,[2]; [35],4 µg/mL
same,MIC,[2]; [36],2 µg/mL
same,MIC,[2]; [37],2 µg/mL
same,MIC,[2]; [38],2 µg/mL
same,MIC,[2]; [39],2 µg/mL
same,MIC,[2]; [40],4 µg/mL
same,MIC,[2]; [41],4 µg/mL
same,MIC,[2]; [42],8 µg/mL
same,MIC,[2]; [43],0.5 µg/mL
same,MIC,[2]; [44],2 µg/mL
same,MIC,[2]; [45],4 µg/mL
same,MIC,[2]; [46],4 µg/mL
same,MIC,[2]; [47],8 µg/mL
same,MIC,[2]; [48],4 µg/mL
same,MIC,[2]; [49],2 µg/mL
same,MIC,[2]; [50],8 µg/mL
same,MIC,[2]; [51],4 µg/mL
same,MIC,[2]; [52],4 µg/mL
same,MIC,[2]; [53],4 µg/mL
same,MIC,[2]; [54],2 µg/mL
same,MIC,[2]; [55],2 µg/mL
same,MIC,[2]; [56],4 µg/mL
same,MIC,[2]; [57],4 µg/mL
same,MIC,[2]; [58],2 µg/mL
same,MIC,[2]; [59],2 µg/mL
same,MIC,[2]; [60],4 µg/mL
same,MIC,[2]; [61],4 µg/mL
same,MIC50,[2]; [62],4 µg/mL
same,MIC90,[2]; [63],4 µg/mL
same,MIC,[2]; [64],4 µg/mL
same,MIC50,[2]; n=25 per group,4 µg/mL
same,MIC90,[2]; n=25 per group,4 µg/mL
same,Range of MICs,[2]; n=25 per group,0.5 to 8 µg/mL
N=C(N)NCCCCC(=O)Nc1cc(C(F)(F)F)cc(NC(=O)c2cnc(C(=O)Nc3cc(C(F)(F)F)cc(NC(=O)CCCCNC(=N)N)c3SCCN)cn2)c1SCCN [Oligomer 5],MIC50,"[1]; 25 isolates, Row 13",0.125 µg/mL
same,MIC90,"[1]; 25 isolates, Row 22",0.25 µg/mL
same,Range of MICs,[1]; [3],0.03125 to 0.5 µg/mL
same,MIC,[1]; [4],≤ 0.25 µg/mL
same,MIC,[1]; [5],0.125 µg/mL
same,MIC,[1]; [6],0.125 µg/mL
same,MIC,[1]; [7],0.125 µg/mL
same,MIC,[1]; [8],0.125 µg/mL
same,MIC,[1]; [9],0.125 µg/mL
same,MIC,[1]; [10],0.125 µg/mL
same,MIC,[1]; [11],0.125 µg/mL
same,MIC,[1]; [12],0.125 µg/mL
same,MIC,[1]; [13],0.25 µg/mL
same,MIC,[1]; [14],0.25 µg/mL
same,MIC,[1]; [15],0.125 µg/mL
same,MIC,[1]; [16],0.125 µg/mL
same,MIC,[1]; [17],0.125 µg/mL
same,MIC,[1]; [18],0.125 µg/mL
same,MIC,[1]; [19],< 0.0625 µg/mL
same,MIC,[1]; [20],0.125 µg/mL
same,MIC,[1]; [21],0.125 µg/mL
same,MIC,[1]; [22],0.125 µg/mL
same,MIC,[1]; [23],0.125 µg/mL
same,MIC,[1]; [24],0.125 µg/mL
same,MIC,[1]; [25],0.5 µg/mL
same,MIC,[1]; [26],0.125 µg/mL
same,MIC,[1]; [27],0.125 µg/mL
same,MIC,[1]; [28],< 0.0625 µg/mL
same,MIC,[1]; [29],0.25 µg/mL
same,MIC,[1]; [30],0.125 µg/mL
same,MIC50,[1]; [31],0.125 µg/mL
same,MIC90,[1]; [32],0.25 µg/mL
same,MIC,[1]; [33],0.125 µg/mL
same,MIC50,[1]; n=25 per group,0.125 µg/mL
same,MIC90,[1]; n=25 per group,0.25 µg/mL
same,Range of MICs,[1]; n=25 per group,0.03125 to 0.5 µg/mL
same,MIC50,"[2]; 25 isolates, Row 13",64 µg/mL
same,Range of MICs,[2]; [34],4 to 256 µg/mL
same,MIC,[2]; [35],64 µg/mL
same,MIC,[2]; [36],32 µg/mL
same,MIC,[2]; [37],64 µg/mL
same,MIC,[2]; [38],64 µg/mL
same,MIC,[2]; [39],64 µg/mL
same,MIC,[2]; [40],128 µg/mL
same,MIC,[2]; [41],64 µg/mL
same,MIC,[2]; [42],> 128 µg/mL
same,MIC,[2]; [43],4 µg/mL
same,MIC,[2]; [44],128 µg/mL
same,MIC,[2]; [45],64 µg/mL
same,MIC,[2]; [46],64 µg/mL
same,MIC,[2]; [47],64 µg/mL
same,MIC,[2]; [48],64 µg/mL
same,MIC,[2]; [49],64 µg/mL
same,MIC,[2]; [50],128 µg/mL
same,MIC,[2]; [51],64 µg/mL
same,MIC,[2]; [52],128 µg/mL
same,MIC,[2]; [53],32 µg/mL
same,MIC,[2]; [54],128 µg/mL
same,MIC,[2]; [55],64 µg/mL
same,MIC,[2]; [56],128 µg/mL
same,MIC,[2]; [57],128 µg/mL
same,MIC,[2]; [58],32 µg/mL
same,MIC,[2]; [59],64 µg/mL
same,MIC,[2]; [60],128 µg/mL
same,MIC,[2]; [61],64 µg/mL
same,MIC50,[2]; [62],64 µg/mL
same,MIC90,[2]; [63],128 µg/mL
same,MIC,[2]; [64],64 µg/mL
same,MIC50,[2]; n=25 per group,64 µg/mL
same,MIC90,[2]; n=25 per group,128 µg/mL
same,Range of MICs,[2]; n=25 per group,4 to 256 µg/mL
